Values joined by “and” are separate entries in the source; they are usually repeats but may differ in a detail not shown here. Identical values can stand only once. Like-named read-outs stand apart in the source and are kept apart here.
Tests used:
[1] = test system: S. pneumoniae isolates; assay: MBC, Example 5; type: cell-based, Streptococcus pneumoniae
Method: [Micro-broth dilutions and 96 well trays are prepared by the following method: 90 μL of 4% LHB:CAMHB is aliquotted into all wells using a multichannel pipette. 90 μL of working antimicrobial stocks were no serial diluted down the tray by a 1:2 dilution. Negative broth controls and dilution control were taken into account when planning the set up of a 96 well tray.] 10 μL of bacterial suspension was then added to the appropriate wells in the 96 well tray. Appropriate positive (no antimicrobial), negative (no antimicrobial or bacteria) and negative dilution (a serial dilution control of antimicrobial and broth) controls were included in each assay. […] The MBC was determined by a 99.95% inhibition of S. pneumoniae, taking into account the dilution factor. MICs and MBCs were determined in quadruplicate and the mode was taken as the representative value. The MIC50, MIC90 and MIC range and MBC50, MBC90 and MBC range were determined according to CLSI standards. The MIC50 and MIC90, or MBC50 and MBC90, are defined by the lowest concentrations which, when all the MICs and MBCs of the isolates are arranged from lowest to highest, inhibited the 50th and 90th percentile of the total amount of isolates, respectively.

[2] = test system: Staphylococcus aureus; conditions: control strain Staphylococcus aureus ATCC 29213; cited from earlier work
[3] = test system: VRE isolates; assay: MBC (CLSI methodology), Example 7; type: cell-based, Enterococcus spp.; set-up: key: M = many bacteria growing on the plate (too many to count)

CC1(C)S[C@@H]2[C@H](NC(=O)[C@H](N)c3ccccc3)C(=O)N2[C@H]1C(=O)O [Ampicillin]
0.045 µg/mL: MBC ([1]; Streptococcus pneumoniae, isolate P21, Table 22, CAMHB diluent for NCL062, read-out: MBC) | MBC ([1]; Streptococcus pneumoniae, pneumococcal isolate A66.1, read-out: MBC) | MBC ([1]; Streptococcus pneumoniae, pneumococcal isolate WCH46, read-out: MBC) | MBC ([1]; Streptococcus pneumoniae, pneumococcal isolate WCH184, read-out: MBC)
0.09 µg/mL: MBC ([1]; Streptococcus pneumoniae, isolate WCH57, Table 22, CAMHB diluent for NCL062, read-out: MBC) | MBC ([1]; Streptococcus pneumoniae, pneumococcal isolate WCH92, read-out: MBC)
0.5 to 2 µg/mL: Acceptable MIC range for Ampicillin [2]
0.011 to 0.09 µg/mL: MBC Range ([1]; all S. pneumoniae isolates)
0.022 µg/mL: MBC ([1]; Streptococcus pneumoniae, isolate WCH158, Table 22, CAMHB diluent for NCL062, read-out: MBC)
0.023 µg/mL: MBC ([1]; Streptococcus pneumoniae, pneumococcal isolate D39, read-out: MBC) | MBC ([1]; Streptococcus pneumoniae, pneumococcal isolate EF3030, read-out: MBC) | MBC ([1]; Streptococcus pneumoniae, pneumococcal isolate L82016, read-out: MBC) | MBC ([1]; Streptococcus pneumoniae, pneumococcal isolate P9, read-out: MBC) | MBC ([1]; Streptococcus pneumoniae, pneumococcal isolate P21, read-out: MBC) | MBC ([1]; Streptococcus pneumoniae, pneumococcal isolate TIGR4, read-out: MBC) | MBC ([1]; Streptococcus pneumoniae, pneumococcal isolate WCH43, read-out: MBC) | MBC ([1]; Streptococcus pneumoniae, pneumococcal isolate WCH57, read-out: MBC) | MBC ([1]; Streptococcus pneumoniae, pneumococcal isolate WCH77, read-out: MBC) | MBC ([1]; Streptococcus pneumoniae, pneumococcal isolate WCH86, read-out: MBC) | MBC ([1]; Streptococcus pneumoniae, pneumococcal isolate WCH89, read-out: MBC) | MBC ([1]; Streptococcus pneumoniae, pneumococcal isolate WCH137, read-out: MBC) | MBC ([1]; Streptococcus pneumoniae, pneumococcal isolate WCH158, read-out: MBC) | MBC ([1]; Streptococcus pneumoniae, pneumococcal isolate WCH211, read-out: MBC) | MBC ([1]; Streptococcus pneumoniae, pneumococcal isolate WU2, read-out: MBC) | MBC ([1]; Streptococcus pneumoniae, all S. pneumoniae isolates, read-out: MBC50) | MBC ([1]; Streptococcus pneumoniae, all S. pneumoniae isolates, read-out: MBC90)
Autolysis: MBC ([1]; pneumococcal isolate WCH16)

N=C(N/N=C/c1ccc(Cl)cc1)N/N=C/c1ccc(Cl)cc1 [NCL812, 1,3-bis[(E)-(4-chlorophenyl)methyleneamino]guanidine]
100 CFU/ml and 50 CFU/ml: NCL812 MBC: number of bacteria growing after 24 hours per ml of sample ([3]; VRE 37c, NCL812 4 μg/ml)
820 CFU/ml and 790 CFU/ml: NCL812 MBC: number of bacteria growing after 24 hours per ml of sample ([3]; VRE 16c, NCL812 4 μg/ml)
M: NCL812 MBC: number of bacteria growing after 24 hours per ml of sample ([3]; VRE 12c, NCL812 16 μg/ml) | NCL812 MBC: number of bacteria growing after 24 hours per ml of sample ([3]; VRE 12c, NCL812 32 μg/ml) | NCL812 MBC: number of bacteria growing after 24 hours per ml of sample ([3]; VRE 12c, NCL812 64 μg/ml) | NCL812 MBC: number of bacteria growing after 24 hours per ml of sample ([3]; VRE 12c, NCL812 […]) | NCL812 MBC: number of bacteria growing after 24 hours per ml of sample ([3]; VRE 14t, NCL812 […]) | NCL812 MBC: number of bacteria growing after 24 hours per ml of sample ([3]; VRE 16c(dc), NCL812 16 μg/ml) | NCL812 MBC: number of bacteria growing after 24 hours per ml of sample ([3]; VRE 16c(dc), NCL812 32 μg/ml) | NCL812 MBC: number of bacteria growing after 24 hours per ml of sample ([3]; VRE 16c(dc), NCL812 64 μg/ml) | NCL812 MBC: number of bacteria growing after 24 hours per ml of sample ([3]; VRE 16c(dc), NCL812 […]) | NCL812 MBC: number of bacteria growing after 24 hours per ml of sample ([3]; VRE 16c, NCL812 16 μg/ml) | NCL812 MBC: number of bacteria growing after 24 hours per ml of sample ([3]; VRE 16c, NCL812 32 μg/ml) | NCL812 MBC: number of bacteria growing after 24 hours per ml of sample ([3]; VRE 16c, NCL812 64 μg/ml) | NCL812 MBC: number of bacteria growing after 24 hours per ml of sample ([3]; VRE 16c, NCL812 […]) | NCL812 MBC: number of bacteria growing after 24 hours per ml of sample ([3]; VRE 19t, NCL812 […]) | NCL812 MBC: number of bacteria growing after 24 hours per ml of sample ([3]; VRE 23c, NCL812 64 μg/ml) | NCL812 MBC: number of bacteria growing after 24 hours per ml of sample ([3]; VRE 23c, NCL812 […]) | NCL812 MBC: number of bacteria growing after 24 hours per ml of sample ([3]; VRE 25c, NCL812 8 μg/ml) | NCL812 MBC: number of bacteria growing after 24 hours per ml of sample ([3]; VRE 25c, NCL812 16 μg/ml) | NCL812 MBC: number of bacteria growing after 24 hours per ml of sample ([3]; VRE 25c, NCL812 32 μg/ml) | NCL812 MBC: number of bacteria growing after 24 hours per ml of sample ([3]; VRE 25c, NCL812 64 μg/ml) | NCL812 MBC: number of bacteria growing after 24 hours per ml of sample ([3]; VRE 25c, NCL812 […]) | NCL812 MBC: number of bacteria growing after 24 hours per ml of sample ([3]; VRE 26c(dc), NCL812 16 μg/ml) | NCL812 MBC: number of bacteria growing after 24 hours per ml of sample ([3]; VRE 26c(dc), NCL812 32 μg/ml) | NCL812 MBC: number of bacteria growing after 24 hours per ml of sample ([3]; VRE 26c(dc), NCL812 64 μg/ml) | NCL812 MBC: number of bacteria growing after 24 hours per ml of sample ([3]; VRE 26c(dc), NCL812 […]) | NCL812 MBC: number of bacteria growing after 24 hours per ml of sample ([3]; VRE 37c, NCL812 64 μg/ml) | NCL812 MBC: number of bacteria growing after 24 hours per ml of sample ([3]; VRE 37c, NCL812 […])
980 CFU/ml and 890 CFU/ml: NCL812 MBC: number of bacteria growing after 24 hours per ml of sample ([3]; VRE 16c, NCL812 8 μg/ml)
4000 CFU/ml and 3500 CFU/ml: NCL812 MBC: number of bacteria growing after 24 hours per ml of sample ([3]; VRE 26c(dc), NCL812 8 μg/ml)
0 CFU/ml: NCL812 MBC: number of bacteria growing after 24 hours per ml of sample ([3]; VRE 12c, NCL812 2 μg/ml) | NCL812 MBC: number of bacteria growing after 24 hours per ml of sample ([3]; VRE 14t, NCL812 4 μg/ml) | NCL812 MBC: number of bacteria growing after 24 hours per ml of sample ([3]; VRE 19t, NCL812 4 μg/ml) | NCL812 MBC: number of bacteria growing after 24 hours per ml of sample ([3]; VRE 19t, NCL812 8 μg/ml) | NCL812 MBC: number of bacteria growing after 24 hours per ml of sample ([3]; VRE 23c, NCL812 2 μg/ml) | NCL812 MBC: number of bacteria growing after 24 hours per ml of sample ([3]; VRE 35t, NCL812 2 μg/ml) | NCL812 MBC: number of bacteria growing after 24 hours per ml of sample ([3]; VRE 35t, NCL812 4 μg/ml) | NCL812 MBC: number of bacteria growing after 24 hours per ml of sample ([3]; VRE 35t, NCL812 8 μg/ml)
